According to the supplement of paper PMC8149375:

Assays:
Conditions in all cases: treatment: drug + dasatinib (fixed dose, not stated); 5 days
CAKI-1 [1] = assay: minimum viability across doses, drug + dasatinib, relative to DMSO (fraction); higher = less growth inhibition
Experimental: (§1)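 Primary HTS combination arm: 8 RCC cell lines treated with 8 doses (up to 10 uM) of each library drug plus a fixed dose of dasatinib (dose not stated) for 5 days; viability read by CellTiter-Glo and normalised to DMSO. GI50 was fitted with XLfit, AUC is the area under the dose-response curve, and minimum viability is the lowest fraction of DMSO viability across doses.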

A498 [2] = assay: as above
Experimental: as §1

SN12C [3] = assay: as above
Experimental: as §1

UO-31 [4] = assay: as above
Experimental: as §1

TK-10 [5] = assay: as above
Experimental: as §1

769-P [6] = assay: as above
Experimental: as §1

ACHN [7] = assay: as above
Experimental: as §1

786-O [8] = assay: as above
Experimental: as §1

CAKI-1 [9] = assay: GI50 of drug in presence of dasatinib; higher = less potent
Experimental: as §1

A498 [10] = assay: as above
Experimental: as §1

SN12C [11] = assay: as above
Experimental: as §1

UO-31 [12] = assay: as above
Experimental: as §1

TK-10 [13] = assay: as above
Experimental: as §1

769-P [14] = assay: as above
Experimental: as §1

ACHN [15] = assay: as above
Experimental: as §1

786-O [16] = assay: as above
Experimental: as §1

CAKI-1 [17] = assay: AUC of dose-response viability curve, drug + dasatinib, normalised to DMSO (arbitrary (AUC of normalised viability)); higher = less growth inhibition
Experimental: as §1

A498 [18] = assay: as above
Experimental: as §1

SN12C [19] = assay: as above
Experimental: as §1

UO-31 [20] = assay: as above
Experimental: as §1

TK-10 [21] = assay: as above
Experimental: as §1

769-P [22] = assay: as above
Experimental: as §1

ACHN [23] = assay: as above
Experimental: as §1

786-O [24] = assay: as above
Experimental: as §1

Row | Structure (SMILES) | minimum viability across doses (CAKI-1 [1]) | minimum viability across doses (A498 [2]) | minimum viability across doses (SN12C [3]) | minimum viability across doses (UO-31 [4]) | minimum viability across doses (TK-10 [5]) | minimum viability across doses (769-P [6]) | minimum viability across doses (ACHN [7]) | minimum viability across doses (786-O [8]) | GI50 of drug (CAKI-1 [9]) [nM] | GI50 of drug (A498 [10]) [nM] | GI50 of drug (SN12C [11]) [nM] | GI50 of drug (UO-31 [12]) [nM] | GI50 of drug (TK-10 [13]) [nM] | GI50 of drug (769-P [14]) [nM] | GI50 of drug (ACHN [15]) [nM] | GI50 of drug (786-O [16]) [nM] | AUC of dose-response viability curve (CAKI-1 [17]) | AUC of dose-response viability curve (A498 [18]) | AUC of dose-response viability curve (SN12C [19]) | AUC of dose-response viability curve (UO-31 [20]) | AUC of dose-response viability curve (TK-10 [21]) | AUC of dose-response viability curve (769-P [22]) | AUC of dose-response viability curve (ACHN [23]) | AUC of dose-response viability curve (786-O [24])
1 | Cc1cc(Nc2cc(N3CCN(C)CC3)nc(/C=C/c3ccccc3)n2)n[nH]1.O=C(O)[C@H](O)[C@@H](O)C(=O)O [ENMD-2076] + Cc1nc(Nc2ncc(C(=O)Nc3c(C)cccc3Cl)s2)cc(N2CCN(CCO)CC2)n1 [dasatinib] | 0.00949 | 0.247 | 0.0567 | 0.0131 | 0.164 | 0.131 | 0.0393 | 0.0877 | 194 | 1270 | 400 | 886 | 396 | 1000 | 77.4 | 439 | 1.4 | 2.4 | 1.81 | 2.5 | 1.91 | 1.92 | 1.32 | 1.78
2 | C#Cc1cccc(Nc2ncnc3cc(OCCOC)c(OCCOC)cc23)c1.Cl [Erlotinib HCl] + Cc1nc(Nc2ncc(C(=O)Nc3c(C)cccc3Cl)s2)cc(N2CCN(CCO)CC2)n1 [dasatinib] | 0.125 | 0.718 | 0.589 | 0.249 | 0.37 | 0.234 | 0.114 | 0.469 | 1060 | > 10000 | > 10000 | 5540 | 2440 | 440 | 206 | 8920 | 1.97 | 3.48 | 2.54 | 3.03 | 2.4 | 1.94 | 1.73 | 2.65
3 | CN1CC[C@H](c2c(O)cc(O)c3c(=O)cc(-c4ccccc4Cl)oc23)[C@H](O)C1.Cl [Flavopiridol hydrochloride] + Cc1nc(Nc2ncc(C(=O)Nc3c(C)cccc3Cl)s2)cc(N2CCN(CCO)CC2)n1 [dasatinib] | 0.0304 | 0.0115 | 0.00632 | 0.00894 | 0.168 | 0.0135 | 0.00412 | 0.00472 | 33.6 | 171 | 106 | 252 | 119 | 86 | 24.5 | 34.9 | 1.02 | 1.74 | 1.28 | 1.98 | 1.53 | 1.34 | 0.849 | 0.837
4 | CC(C)NC[C@@H](C(=O)N1CCN(c2ncnc3c2[C@H](C)C[C@H]3O)CC1)c1ccc(Cl)cc1 [GDC-0068] + Cc1nc(Nc2ncc(C(=O)Nc3c(C)cccc3Cl)s2)cc(N2CCN(CCO)CC2)n1 [dasatinib] | 0.311 | 0.74 | 0.563 | 0.0701 | 0.292 | 0.628 | 0.247 | 0.21 | 1750 | > 10000 | > 10000 | 4910 | 1190 | > 10000 | 6.5 | 24.5 | 2.12 | 3.38 | 2.39 | 4.11 | 2.07 | 2.59 | 1.43 | 1.4
5 | OCCn1cc(-c2ccc3c(c2)CC/C3=N\O)c(-c2ccncc2)n1 [GDC-0879] + Cc1nc(Nc2ncc(C(=O)Nc3c(C)cccc3Cl)s2)cc(N2CCN(CCO)CC2)n1 [dasatinib] | 0.738 | 0.804 | 0.686 | 0.894 | 0.716 | 0.605 | 0.354 | 0.568 | > 10000 | > 10000 | > 10000 | > 10000 | > 10000 | > 10000 | 4230 | > 10000 | 2.86 | 3.55 | 2.62 | 3.45 | 3.05 | 2.36 | 2.12 | 2.39
6 | CS(=O)(=O)N1CCN(Cc2cc3nc(-c4cccc5[nH]ncc45)nc(N4CCOCC4)c3s2)CC1 [GDC-0941] + Cc1nc(Nc2ncc(C(=O)Nc3c(C)cccc3Cl)s2)cc(N2CCN(CCO)CC2)n1 [dasatinib] | 0.0678 | 0.319 | 0.235 | 0.0152 | 0.171 | 0.111 | 0.163 | 0.00743 | 111 | 3090 | 386 | 172 | 302 | 234 | 82.6 | 225 | 1.48 | 2.56 | 1.96 | 1.71 | 1.93 | 1.73 | 1.55 | 1.81
7 | Cc1c(CN2CCN(C(=O)[C@H](C)O)CC2)sc2c(N3CCOCC3)nc(-c3cnc(N)nc3)nc12 [GDC-0980 (RG7422)] + Cc1nc(Nc2ncc(C(=O)Nc3c(C)cccc3Cl)s2)cc(N2CCN(CCO)CC2)n1 [dasatinib] | 0.02 | 0.17 | 0.0934 | 0.00909 | 0.0374 | 0.0451 | 0.0521 | 0.00396 | 102 | 658 | 119 | 268 | 103 | 80.4 | 25.5 | 81.1 | 1.36 | 2.4 | 1.45 | 2.18 | 1.47 | 1.44 | 1.12 | 1.47
8 | CN1CCN(C2CCN(C(=O)Nc3cc(Oc4ccc(NC(=O)C5(C(=O)Nc6ccc(F)cc6)CC5)c(F)c4)ccn3)CC2)CC1 [Golvatinib (E7050)] + Cc1nc(Nc2ncc(C(=O)Nc3c(C)cccc3Cl)s2)cc(N2CCN(CCO)CC2)n1 [dasatinib] | 0.0248 | 0.335 | 0.191 | 0.0151 | 0.154 | 0.131 | 0.0563 | 0.0302 | 541 | 9520 | 1620 | 3090 | 886 | 3670 | 368 | 434 | 1.89 | 3.93 | 2.19 | 4.48 | 2.09 | 2.3 | 1.63 | 1.93
9 | CCOC(=O)C1=C(N)Oc2ccc(Br)cc2[C@H]1[C@H](C#N)C(=O)OCC [HA14-1] + Cc1nc(Nc2ncc(C(=O)Nc3c(C)cccc3Cl)s2)cc(N2CCN(CCO)CC2)n1 [dasatinib] | 0.628 | 0.797 | 0.69 | 0.952 | 0.725 | 0.737 | 0.579 | 0.624 | > 10000 | > 10000 | > 10000 | > 10000 | > 10000 | > 10000 | > 10000 | > 10000 | 2.35 | 3.14 | 2.54 | 3.92 | 2.71 | 2.77 | 2.17 | 2.65
10 | COc1ccc(S(=O)(=O)N(C(C)=O)c2ccccc2/C=C/c2cc[n+]([O-])cc2)cc1 [HMN-214] + Cc1nc(Nc2ncc(C(=O)Nc3c(C)cccc3Cl)s2)cc(N2CCN(CCO)CC2)n1 [dasatinib] | 0.121 | 0.124 | 0.172 | 0.00841 | 0.297 | 0.0839 | 0.102 | 0.00332 | 74.4 | 387 | 342 | 499 | 609 | 278 | 5.38 | 99.7 | 1.32 | 2.04 | 1.78 | 2.65 | 2.02 | 1.95 | 1.15 | 1.18
11 | CCS(=O)(=O)Nc1ccc2c(c1)/C(=C(/Nc1ccc(CN3CCCCC3)cc1)c1ccccc1)C(=O)N2 [Hesperadin] + Cc1nc(Nc2ncc(C(=O)Nc3c(C)cccc3Cl)s2)cc(N2CCN(CCO)CC2)n1 [dasatinib] | 0.0323 | 0.109 | 0.00226 | 0.0118 | 0.0643 | 0.0628 | 0.00666 | 0.0121 | 45.5 | 441 | 82.6 | 357 | 713 | 327 | 14.7 | 46.6 | 1.15 | 2.05 | 1.26 | 2.5 | 2.17 | 1.86 | 1.18 | 1.2
12 | O=C(Nc1cc(C(F)(F)F)cc(C(F)(F)F)c1)c1cc(Cl)ccc1O [IMD 0354] + Cc1nc(Nc2ncc(C(=O)Nc3c(C)cccc3Cl)s2)cc(N2CCN(CCO)CC2)n1 [dasatinib] | 0.0138 | 0.0122 | 0.00339 | 0.0139 | 0.07 | 0.00617 | 0.00153 | 0.00625 | 481 | 1700 | 1340 | 2030 | 759 | 557 | 220 | 373 | 1.85 | 2.92 | 1.97 | 4.26 | 2.03 | 1.9 | 1.29 | 1.62
13 | CC(C)n1nc(-c2ccc3oc(N)nc3c2)c2c(N)ncnc21 [INK 128] + Cc1nc(Nc2ncc(C(=O)Nc3c(C)cccc3Cl)s2)cc(N2CCN(CCO)CC2)n1 [dasatinib] | 0.0244 | 0.0897 | 0.0733 | 0.00639 | 0.0156 | 0.0625 | 0.0339 | 0.00403 | 9.18 | 33.8 | 13.1 | 13.8 | 9.96 | 14.7 | 3.03 | 4.88 | 0.693 | 1.19 | 0.931 | 0.741 | 0.838 | 0.95 | 0.554 | 0.59
14 | CS(=O)(=O)O.Cc1ccc(NC(=O)c2ccc(CN3CCN(C)CC3)cc2)cc1Nc1nccc(-c2cccnc2)n1 [Imatinib Mesylate] + Cc1nc(Nc2ncc(C(=O)Nc3c(C)cccc3Cl)s2)cc(N2CCN(CCO)CC2)n1 [dasatinib] | 0.603 | 0.945 | 0.688 | 0.683 | 0.666 | 0.562 | 0.595 | 0.584 | > 10000 | > 10000 | > 10000 | > 10000 | > 10000 | > 10000 | > 10000 | > 10000 | 2.36 | 3.53 | 2.49 | 3.49 | 2.85 | 2.34 | 2.48 | 2.69
